Experimental data as given in US6433009B1, “Sulfonyl urea derivatives and their use in the control of interleukin-1 activity” (Pfizer Inc, priority 1997, dated 2002).

## O=C(Nc1c2c(cc3c1CCC3)CCC2)NS(=O)(=O)c1ccc2[nH]cnc2c1 [Example 127, 1-(1H-Benzoimidazole-5-sulfonyl)-3-(1,2,3,5,6,7-hexahydro-s-indacen-4-yl)-urea]
  melting point: 239 °C (dec.)

## CC(=O)c1cccc(S(=O)(=O)NC(=O)Nc2c(C(C)C)cccc2C(C)C)c1 [Example 56, 1-(3-Acetyl-benzenesulfonyl)-3-(2,6-diisopropyl-phenyl)-urea]
  melting point: 151.6 to 153.5 °C
